Assay results taken from paper PMC7053711, “A G protein–coupled receptor mediates neuropeptide-induced oocyte maturation in the jellyfish Clytia” (PLoS Biology, 2020).
Entries after “also recorded” stand apart in the source; their conditions may differ. Peptide text beside a SMILES is read from it.

How the values were obtained:
[1] = tested on: hydrozoan oocytes; settings: cell-permeable analogue of cAMP; ref [3],[21]; cited from earlier work
Excerpt: We performed a series of oocyte maturation and spawning assays, comparing the responses of wild-type and MIHR mutant isolated gonads and oocytes to different stimuli (Fig 4). […] I ...

[2] = tested on: MIHR mutant (n5-23, n5-13) isolated female gonads; assay: Gonad spawning assay, MIHR mutant isolated gonads; parameters: species or system Clytia hemisphaerica; settings: isolated MIHR mutant gonads, 4 mM Br-cAMP, washed after 5 minutes
Method: We performed a series of oocyte maturation and spawning assays, comparing the responses of wild-type and MIHR mutant isolated gonads and oocytes to different stimuli (Fig 4).
Sexually mature MIHR mutant medusae from colonies n5-13 and n5-23 and wild-type medusae were cultured on the same day–night cycle. Individual gonads were dissected in the evening after afternoon spawning. To test the light response, one group of each was transferred to 100 μL MFSW in wells of 96-well plastic plates, covered overnight, and re-exposed to white light the following day. To test responses to MIH and cAMP, other groups of dissected gonads were cultured overnight in constant light, then transferred to 96-well plastic plates for two hours. MIH was added to wells as an equal volume of 200 nM WPRPamide (GenScript) stock in MFSW was added to give a final concentration of 100 nM. Alternatively, a stock of 20 mM bromo adenosine 3′,5′cyclic monophosphate (Br-cAMP–Fluka; Sigma Aldrich) in distilled water was added to give a final concentration of 4 mM. Gonads were washed after 5 minutes incubation in Br-cAMP. Oocyte maturation was scored after 30 minutes as germinal vesicle breakdown (GVBD), i.e., visible dissolution of the oocyte nuclear membrane upon entry into M phase, which in all cases was followed by spawning about 1 hour later.
(§1) Supplementary file pbio.3000614.s013.xlsx: S3 Data Numerical data corresponding to Fig 4A and 4C. The first tab collects all the raw data from 3 independent gonad spawning assays. Information corresponding to the Fisher exact tests is also shown. […] The means and standard deviations were used to prepare the graph in Fig 4C. Information corresponding to the Fisher exact tests is also shown. (XLSX) Click here for additional data file.

[3] = tested on: fully grown oocytes isolated from MIHR mutant (n5-23) gonads; assay: Oocyte maturation assay, MIHR mutant isolated oocytes (GVBD); format: cell-based, Clytia hemisphaerica
Excerpt: (§2) Fig 4 Oocyte maturation failure in MIHR mutant medusae. Oocyte maturation assays performed using isolated gonads (A, B) or isolated oocytes (C) from MIHR mutant jellyfish compared to WT. In A and C, bar heights represent mean percentages of 3 independent experiments and error bars show standard deviations. Total gonad or oocyte numbers for each treatment are indicated in gray. (A) Spawning response of isolated gonads from WT and n5-23 female medusae. Three treatments were compared as indicated above each panel: Light: light stimulation after incubation in the dark; MIH: treatment of light-maintained gonads with 100 nM WPRPamide; cAMP: treatment of light-maintained gonads with 4 mM Br-cAMP. […] Full datasets from three independent experiments are available in S3 Data. (B) Light microscope images illustrating gonads from an equivalent experiment performed with n5-13 female MIHR mutant medusae 120 minutes after the indicated treatments. Scale bar: 500 μm. […] Full datasets from 3 independent experiments are available in S3 Data. Br-cAMP, bromoadenosine 3′,5′-cyclic monophosphate; cAMP, cyclic adenosine monophosphate; KO, knockout; MIH, maturation-inducing hormone; MIHR, MIH receptor; WT, wild-type.
(§3) Fully grown oocytes were isolated manually from dissected gonads of wild-type and MIHR KO mutant jellyfish prepared as above. Maturation assays were performed in wells of 96-well plates or small plastic petri dishes lined with 2% agarose in MFSW. Spontaneous maturation occurs at a low frequency in control oocytes. To test MIH-induced maturation, 10 μL WPRPamide from 1 μM solution in MFSW was added to a final concentration of 100 nM. In some experiments, Br-cAMP from a 20 mM stock in H2O was used at a final concentration of 4 mM. GVBD was scored at 30 minutes, every 5 minutes, depending on experiments.
as §1

[4] = tested on: fully grown oocytes isolated from WT gonads; assay: Oocyte maturation assay, wild-type isolated oocytes (GVBD); format: cell-based, Clytia hemisphaerica
Excerpt: as §2, §3, §1

[5] = tested on: Clytia MIHR; assay: GPCR deorphanization assay, luminescence response to peptides at 1 μM (CHO-K1 cells, Gα-16, GFP-apoaequorin); format: cell-based, Clytia hemisphaerica; settings: peptide 1E-6M, normalised to Platynereis FLamide receptor + 1 μM AKYFL-NH2, n = 3
Excerpt: We used a cell culture–based GPCR deorphanization assay to identify the MIH receptor from our candidate shortlist. cDNAs for each candidate were transfected into Chinese Hamster ovary K1 (CHO-K1) cells along with the promiscuous Gα protein Gα-16, and an aequorin-GFP luminescence reporter that measures Ca^2+ mobilization downstream of this heterologous Gα protein [27, 28]. We first screened the 16 candidate Clytia GPCRs against a mixture of 33 synthetic amidated peptides (including MIHs) predicted to be generated from previously identified putative Clytia neuropeptide precursors and one additional one identified from transcriptome data. Given our imperfect knowledge of pro-peptide processing in cnidarians, some of the synthetic peptides may not correspond to endogenous peptides. Only one of the 16 GPCRs was activated by this peptide mixture. This receptor responded well to all 4 synthetic Clytia MIH tetrapeptides, as well as to related Cladonema MIH peptides that can also activate Clytia oocyte maturation, but not to other Clytia peptide mixtures or poorly active MIH penta-/tripeptides. We termed this Clytia GPCR the Maturation Inducing Hormone Receptor (MIHR). The activity of individual peptides at 1 μM to stimulate the MIHR closely matched their in vivo ability to induce oocyte maturation (Fig 1B).
(§4) Cell culture GPCR ligand response assays were performed as described. Briefly, CHO-K1 cells were cultured in Ham’s F12 Nut Mix medium (Thermo Fisher Scientific) with 10% foetal bovine serum. Cells were seeded in 96-well plates at approximately 10,000 cells/well and transfected the following day with pcDNA3.1(+) plasmids encoding each of the 16 candidate Clytia GPCRs (S2 Text), the promiscuous Gα-16 protein [65], and a reporter construct GFP-apoaequorin [66] (60 ng each) using the transfection reagent TurboFect (Thermo Fisher Scientific). After 2 days of expression, the medium was removed and replaced with Hank’s balanced salt solution (HBSS) supplemented with 1.8 mM Ca2+, 10 mM glucose, and […] coelenterazine h (Promega, Madison, WI). After incubation at 37 °C for 2 hours, cells were tested by adding synthetic peptides (GenScript) in HBSS supplemented with 1.8 mM Ca2^+ and 10 mM glucose. A list of all synthetic peptides used is provided in S2 Table. Luminescence was recorded for 45 seconds in a plate reader (BioTek Synergy Mx or Synergy H4; BioTek, Winooski, VT). Data were integrated over the 45-second measurement period and recorded as technical triplicates in each case. Data were normalized using the response of Platynereis FLamide receptor to 1 μM AKYFL-NH2 [28]. Dose–response curves were obtained using concentrations between 0.01 nM and 100 μM for each peptide. Data for dose–response curves were recorded in triplicate for each concentration and the experiment was repeated independently 3 times. Dose–response curves were fitted with a four-parameter curve using Prism 6 (GraphPad, La Jolla, CA) and were normalized to the calculated upper plateau values (100% activation).
Supplementary file pbio.3000614.s011.xlsx: S1 Data Numerical data corresponding to Fig 1B. Raw luminescence values obtained in triplicate for each of the neuropeptide combinations tested against the MIHR in the deorphanization assay are provided. In the right-hand table, the raw luminescence values obtained in quadruple for the positive and negative controls are provided. In the lower table, means and standard errors of the mean of the luminescence values obtained for each neuropeptide combination and controls are also shown, as well as the values normalized to the positive control, which were used to prepare the graph shown in Fig 1B. MIHR, MIH receptor. (XLSX) Click here for additional data file.

[6] = tested on: Clytia MIHR; assay: Dose–response curves of Clytia MIHR, luminescence (CHO-K1 cells, Gα-16, GFP-apoaequorin); format: cell-based, Clytia hemisphaerica; parameters: key to Span (best-fit value) / Bottom (best-fit value): % activation, normalized to fitted upper plateau (100%); settings: for EC50: four-parameter fit, variable slope, triplicate; for HillSlope / LogEC50: best-fit value; for Bottom / Span / Top: best-fit value (luminescence)
Method: The Clytia MIH amidated peptides are produced from two precursor genes Che-pp4 (generating multiple copies of WPRAamide, WPRYamide, and WPRPamide) and Che-pp1 (multiple copies of WPRPamide and RPRGamide).
as §4
Supplementary file pbio.3000614.s012.xlsx: S2 Data Numerical data corresponding to Fig 1C. The first three tabs show statistical values obtained using Prism 6 software (GraphPad, La Jolla, CA) from the raw luminescence values for 3 independent dose–response experiments. The raw luminescence values are shown, as well as the values normalized with respect to the maximum. […] MIH, maturation-inducing hormone. (XLSX) Click here for additional data file.

[7] = tested on: Platynereis FLamide receptor; assay: Positive control of deorphanization assay, luminescence; format: cell-based; settings: 1 μM AKYFL-NH2
Excerpt: Fig 1 Identification of the Clytia MIHR. (A) Diagram of a Clytia gonad showing the different tissues used for RNA-seq and GPCR expression comparisons. A total of 536 putative GPCRs identified in Clytia mixed-stages transcriptome were assigned to the three main GPCR classes (A, B, C) or “other” based on Pfam signatures. The 16 top candidate MIH GPCRs were selected based on oocyte enrichment, relatedness to known bilaterian class-A neuropeptide GPCRs, and Pfam information. (B) Luminescence response of CHO-K1 cells expressing the putative Clytia MIH GPCR treated with neuropeptide mixes lacking MIH activity (purple bars), MIH tetrapeptides identified from C. hemisphaerica (blue bars) or Cladonema radiatum (green bars), or related penta- and tripeptides previously shown to be ineffective in triggering oocyte maturation in vivo (red bars). Empty pcDNA3.1 vector was used as negative control and Platynereis FLamide and its receptor as a positive control (gray bars). Peptide concentrations all 1 μM. Absolute units of luminescence were normalized using the positive control; data are shown as mean ± standard error of the mean (n = 3). […] Luminescence values were normalized relative to the maximum of fitted dose–response curves and are shown as mean ± standard error of the mean (n = 3). Half maximal effective concentration (EC50) values were calculated as means of 3 independent experiments. […]

[8] = 100 nM WPRPamide or 4 mM Br-cAMP
[9] = log(agonist) vs. response, variable slope (four parameters), fit of third dataset

Nc1ncnc2c1nc(Br)n2[C@@H]1O[C@@H]2COP(=O)(O)O[C@H]2[C@H]1O [Br-cAMP, bromoadenosine 3′,5′-cyclic monophosphate, reference compound]
hydrozoan oocyte maturation [1]: induces hydrozoan oocyte maturation | oocyte maturation and spawning of MIHR mutant gonads, Br-cAMP treatment [2]: rescued meiotic maturation and spawning; also recorded: rescued the phenotype of MIHR mutant gonads, efficiently triggering oocyte maturation and spawning; also recorded: provoked oocyte maturation and spawning | maturation of isolated MIHR mutant oocytes, Br-cAMP ([3]; 4 mM Br-cAMP): promoted maturation of isolated fully grown MIHR mutant oocytes; also recorded: only Br-cAMP induced maturation of MIHR KO oocytes | Percentage of Oocyte maturation, Mean ([3]; cAMP (4mM BrcAMP), MIHR KO, mean of 3 replicates, Sdev 6.00): 89.91 | maturation of isolated WT oocytes [4, 8]: triggered maturation of WT oocytes | time to visible GVBD, isolated WT oocytes [4, 8]: 20 to 30 min | Percentage of Oocyte maturation, Mean ([4]; cAMP (4mM BrcAMP), WT, mean of 3 replicates, Sdev 14.23): 84.33

C[C@H](NC(=O)[C@H](CCCNC(=N)N)NC(=O)[C@@H]1CCCN1C(=O)[C@@H](N)Cc1c[nH]c2ccccc12)C(N)=O [WPRAa] (H-WPRA-NH2; N-terminus assumed)
Normalised response (to positive control), mean [5]: 0.2465 | EC50 ([6]; dataset/experiment 1): 140 nM | EC50 ([6]; dataset/experiment 2): 940 nM | HillSlope ([6]; first dataset): 1.505 | LogEC50 ([6]; first dataset): -6.854 | Bottom ([6]; first dataset): 1277 | Span ([6]; first dataset): 50384 | Top ([6]; first dataset): 51660 | Bottom (best-fit value) [6, 9]: 12.04 | HillSlope (best-fit value) [6, 9]: 1.48 | LogEC50 (best-fit value) [6, 9]: -6.272 | Span (best-fit value) [6, 9]: 87.97 | HillSlope ([6]; second dataset): 1.06 | LogEC50 ([6]; second dataset): -6.027 | Bottom ([6]; second dataset): 2165 | Span ([6]; second dataset): 21649 | Top ([6]; second dataset): 23814

AKYFL-NH2 [(+) Ctrl, ligand for Platynereis FLamide receptor]
Normalised response (to positive control), mean [7]: 1
